# Values of other authors as cited in patent US8926084B2, “Polymerizable ink composition, ink cartridge containing the same, and inkjet printer” (Ricoh Company, Ltd., priority 2012, dated 2015).
# Like-named read-outs stand apart in the source and are kept apart here.
# Details: material evaluated as no skin sensitization or negative in MSDS has an SI value less than 3, cited from earlier work
Structure (SMILES),skin sensitization as mentioned in MSDS (listed as triethylene glycol divinyl ether),skin sensitization as mentioned in MSDS
C=COCCOCCOCCOC=C [Triethylene glycol divinylether],free from skin sensitization,
"C=CC(=O)OCC(CC)(COC(=O)C=C)COC(=O)C=C [Trimethylol propane triacrylate (M-309), Trimethylol propane triacrylate]",,"Toagosei Company, Limited, skin sensitization causing"
